The values that follow come from ChEMBL document CHEMBL4266049, “A Steroid-Type Antioxidant Targeting the Keap1/Nrf2/ARE Signaling Pathway from the Soft Coral Dendronephthya gigantea” (J Nat Prod, 2018).

Molecules are shown by their SMILES. The source made the active and inactive calls. The calls are words filed in the database; no cut-off is given here.

Data set [1] has as its system PC-12. Briefly: Cytotoxicity against rat PC12 cells assessed as reduction in cell viability at 10 uM after 24 hrs by MTT assay. It counts as cell-based. To be noted: pc-12, 24 h. A general note: Formazan colour is commonly taken as a measure of viable cells.
Data set [2] concerns PC-12. Description: Cytoprotective activity against H2O2-induced oxidative injury in rat PC12 cells assessed as […] in cell viability at 10 uM pretreated for 24 hrs followed by 350 uM H2O2 challenge measured after 24 hrs by MTT assay. It counts as functional, cell-based.
Data set [3] concerns PC-12. Briefly: Cytoprotective activity against H2O2-induced oxidative injury in rat PC12 cells assessed as […] in cell viability at 10 uM pretreated for 24 hrs followed by 500 uM H2O2 challenge measured after 24 hrs by MTT assay. It counts as functional, cell-based.
Data set [4] concerns PC-12. Briefly: Cytoprotective activity against H2O2-induced oxidative injury in rat PC12 cells harboring Nrf2 siRNA assessed as increase in cell viability at 10 uM pretreated for 24 hrs followed by H2O2 challenge measured after 24 hrs by MTT assay. The format is functional, cell-based.
Data set [5] has as its target T1, KEAP1/NRF2 (Rattus norvegicus) (UniProt O54968+P57790). Briefly: Inhibition of Keap1/Nrf2 signaling in rat PC12 cells assessed as induction of nuclear translocation at 10 uM after 6 hrs by DAPI staining based fluorescence microscopic analysis. The format is cell-based.
Data set [6] relates to PC-12. Description: Cytoprotective activity against H2O2-induced oxidative injury in rat PC12 cells harboring siRNA assessed as increase in colony formation at 2 uM pretreated for 24 hrs followed by H2O2 challenge by crystal violet staining based assay. The format is functional, cell-based.
In data set [7] the test system is PC-12. Briefly: Cytoprotective activity against H2O2-induced oxidative injury in rat PC12 cells harboring siRNA assessed as increase in cell viability at 10 uM pretreated for 24 hrs followed by H2O2 challenge measured after 24 hrs by MTT assay. It counts as functional, cell-based.
Data set [8] concerns PC-12. Briefly: Cytoprotective activity against H2O2-induced oxidative injury in rat PC12 cells assessed as decrease in LDH release after 24 hrs. The format is functional, cell-based.
The test system of data set [9] is PC-12. Description: Cytoprotective activity against H2O2-induced oxidative injury in rat PC12 cells assessed as cell viability at 10 uM pretreated for 24 hrs followed by 350 uM H2O2 challenge measured after 24 hrs by MTT assay (reference value: 60%). It counts as functional.
In data set [10] the test system is PC-12. Briefly: Cytoprotective activity against H2O2-induced oxidative injury in rat PC12 cells assessed as reduction in intracellular reactive oxygen species formation pretreated for 24 hrs followed by H2O2 challenge measured after 3 hrs by DCFH-DA dye based fluorescence microscopic analysis. It counts as functional, cell-based.
The subject of data set [11] is PC-12. Description: Cytoprotective activity against H2O2-induced oxidative injury in rat PC12 cells assessed as inhibition of MDA production pretreated for 24 hrs followed by H2O2 challenge measured after 16 hrs. The format is functional, cell-based.
Data set [12] deals with PC-12. Description: Cytoprotective activity against H2O2-induced oxidative injury in rat PC12 cells assessed as increase in colony formation at 1 to 2 uM pretreated for 24 hrs followed by H2O2 challenge by crystal violet staining based assay. It counts as functional, cell-based.
The target in data set [13] is T1, KEAP1/NRF2 (Rattus norvegicus). Briefly: Inhibition of Keap1/Nrf2 signaling in rat PC12 cells assessed as induction of ARE by measuring increase in HO-1 expression after 24 hrs by Western blot analysis. It counts as cell-based. For orientation: A western blot detects proteins with antibodies after separation by electrophoresis.
Data set [14] concerns PC-12. Briefly: Cytoprotective activity against H2O2-induced oxidative injury in rat PC12 cells harboring Nrf2 siRNA assessed as increase in colony formation at 2 uM pretreated for 24 hrs followed by H2O2 challenge by crystal violet staining based assay. The format is functional, cell-based.
Data set [15] deals with T1, KEAP1/NRF2 (Rattus norvegicus). Briefly: Inhibition of Keap1/Nrf2 signaling in rat PC12 cells assessed as induction of ARE by measuring increase in HO-1 expression at 10 uM after 24 hrs by Western blot analysis. It counts as cell-based.
Data set [16] concerns PC-12. Description: Cytoprotective activity against H2O2-induced oxidative injury in rat PC12 cells assessed as increase in colony formation at 5 uM pretreated for 24 hrs followed by H2O2 challenge by crystal violet staining based assay. It counts as functional, cell-based.
For data set [17], the system named is PC-12. Description: Cytoprotective activity against H2O2-induced oxidative injury in rat PC12 cells assessed as inhibition of MDA production at 10 uM pretreated for 24 hrs followed by H2O2 challenge measured after 16 hrs. It counts as functional, cell-based.
Data set [18] has as its system PC-12. Briefly: Cytoprotective activity against H2O2-induced oxidative injury in rat PC12 cells assessed as reduction in intracellular reactive oxygen species formation at 10 uM pretreated for 24 hrs followed by H2O2 challenge measured after 3 hrs by DCFH-DA dye based fluorescence microscopic analysis. It counts as functional, cell-based.

Turning to `C=C(/C=C/[C@@H](C)[C@H]1CC[C@@H]2[C@]1(C)C[C@H](O)[C@@H]1[C@@]3(C)C[C@H](O)[C@H](O)[C@@H](C)[C@@H]3CC(=O)[C@@]21O)C(C)C`, in the data set with PC-12 [1], the Activity result is “Non-Toxic”. The result with PC-12 [2] was inactive.

Take `C=C(CC[C@@H](C)[C@H]1CC[C@H]2[C@@H]3CC=C4C[C@@H](O)CC[C@]4(CO)[C@H]3CC[C@]12C)C(C)C`: the Activity result in the data set with PC-12 [1] is on record as “Non-Toxic”. Also, the result with PC-12 [2] was inactive.

Consider `CC(=O)O[C@H]1C=C2C[C@@H](O)CC[C@]2(CO)[C@H]2CC[C@]3(C)[C@@H]([C@H](C)CCCC(C)C)CC[C@H]3[C@H]12`, for which the Activity entry with PC-12 [1] was “Non-Toxic”. The outcome with PC-12 [2] was inactive.

Take `CC(C)CCC[C@@H](C)[C@H]1CC[C@H]2[C@@H]3C(=O)C=C4C[C@@H](O)CC[C@]4(C)[C@H]3CC[C@]12C`: the outcome with PC-12 [2] was Active.

Regarding `CC(=O)O[C@H]1C=C2C[C@@H](O)CC[C@]2(CO)[C@H]2CC[C@]3(C)[C@@H]([C@H](C)/C=C/CC(C)C)CC[C@H]3[C@H]12`, the Activity result in the data set on PC-12 [1] was “Non-Toxic”. For the same molecule, the outcome in the data set with PC-12 [2] was inactive.

As to `C=C(/C=C/[C@@H](C)[C@H]1CC[C@@H]2[C@]1(C)C[C@H](O)[C@@H]1[C@@]3(C)C[C@H](O)[C@H](OC(C)=O)[C@@H](C)[C@@H]3CC(=O)[C@@]21O)C(C)C`, the Activity entry in the data set with PC-12 [1] was “Non-Toxic”. Further, the outcome in the data set on PC-12 [2] was inactive.

Regarding `C=C(CC[C@@H](C)[C@H]1CC[C@@H]2[C@]1(C)C[C@H](O)[C@@H]1[C@@]3(C)C[C@H](O)[C@H](O)[C@@H](C)[C@@H]3CC(=O)[C@@]21O)C(C)C`, the Activity result with PC-12 [1] was “Non-Toxic”. Further, the outcome in the data set on PC-12 [2] was inactive.

Regarding `C=C(CC[C@@H](C)[C@H]1CC[C@H]2[C@@H]3C(=O)[C@H]4O[C@]45C[C@@H](O)CC[C@]5(CO)[C@H]3CC[C@]12C)C(C)C`, the Activity entry in the data set with PC-12 [1] is “Non-Toxic”. The outcome in the data set on PC-12 [2] was inactive.

Regarding `CC(C)CCC[C@@H](C)[C@H]1CC[C@H]2[C@@H]3[C@H](O)CC4=CC(=O)CC[C@]4(C)[C@H]3CC[C@]12C`, the outcome in the data set with PC-12 [2] was Active.

On to `C=C(/C=C/[C@@H](C)[C@H]1CC[C@H]2[C@@H]3C(=O)[C@H]4O[C@]45C[C@@H](O)CC[C@]5(COC(C)=O)[C@H]3CC[C@]12C)C(C)C`, for which the Activity entry in the data set on PC-12 [1] is listed as “Non-Toxic”. In addition, the result in the data set with PC-12 [2] was inactive.

As for `C=C(CC[C@@H](C)[C@H]1CC[C@H]2[C@@H]3C(=O)[C@H]4O[C@]45C[C@@H](O)CC[C@]5(COC(C)=O)[C@H]3CC[C@]12C)C(C)C`, in the data set on PC-12 [1], the Activity result is “Non-Toxic”. Further, the result with PC-12 [2] was inactive.

As to `C=C(CC[C@@H](C)[C@H]1CC[C@H]2[C@@H]3C(=O)C=C4C[C@@H](O)CC[C@]4(COC(C)=O)[C@H]3CC[C@]12C)C(C)C`, the Activity entry is “Non-Toxic” in the data set with PC-12 [1], “Dose-dependent effect” with PC-12 [8], 70% with PC-12 [9] and “Dose-dependent effect” in the data set with PC-12 [10]. For the same molecule, the result with PC-12 [3], with PC-12 [6], with PC-12 [7] and with PC-12 [12] was Active. Also, the outcome in the data set with PC-12 [4] and in the data set on PC-12 [14] was inactive. The inhibition result in data set [5] is “Active”. For the same molecule, the inhibition entry (with PC-12 [11]; in data set [13]) was “Dose-dependent effect” each time.

Consider `C=C(CC[C@@H](C)[C@H]1CC[C@H]2[C@@H]3[C@@H](OC(C)=O)C=C4C[C@@H](O)CC[C@]4(CO)[C@H]3CC[C@]12C)C(C)C`, for which, in the data set on PC-12 [1], the Activity entry is given as “Non-Toxic”. Also, the result in the data set on PC-12 [2] was inactive.

Take `C=C(CC[C@@H](C)[C@H]1CC[C@H]2[C@@H]3[C@@H](O)C=C4C[C@@H](O)CC[C@]4(C)[C@H]3CC[C@]12C)C(C)C`: the Activity result in the data set with PC-12 [1] is “Non-Toxic”. Moreover, the outcome in the data set on PC-12 [2] was inactive.

Consider `C=C(/C=C/[C@@H](C)[C@H]1CC[C@H]2[C@@H]3[C@@H](OC(C)=O)C=C4C[C@@H](O)CC[C@]4(CO)[C@H]3CC[C@]12C)C(C)C`, for which, in the data set with PC-12 [1], the Activity result is “Non-Toxic”. Further, in the data set with PC-12 [2], the outcome was inactive.

As for `C=C(CC[C@@H](C)[C@H]1CC[C@H]2[C@@H]3C(=O)[C@H]4O[C@]45C[C@@H](O)CC[C@]5(COC(C)=O)[C@H]3[C@H](OC(C)=O)C[C@]12C)C(C)C`, the Activity entry in the data set with PC-12 [1] was “Non-Toxic”. For the same molecule, the outcome with PC-12 [2] was inactive.

Turning to `C=C(CC[C@@H](C)[C@H]1CC[C@H]2[C@@H]3[C@H](O)C=C4C[C@@H](O)CC[C@]4(COC(C)=O)[C@H]3CC[C@]12C)C(C)C`, the figures for the Activity result in the data set on PC-12 [1] and in the data set on PC-12 [9] were “Non-Toxic” and 70%, respectively. In the data set on PC-12 [3], the outcome was inactive.

With `CC(C)(C)c1cc(O)ccc1O`, the result with PC-12 [3], in the data set with PC-12 [16] and with PC-12 [18] was Active. Moreover, the inhibition result (in [15]; in the data set on PC-12 [17]) was “Active” in each case.
